Each structure is given as a SMILES string. Several values for one entry are separate records, joined by “and”; a condition that tells them apart may be missing. Equal values may be shown once. Toxic doses and inconclusive results are not listed.

For the assay, the system named is L1210 leukemia ip in BDF1 mice, survival T/C. In words: NCI In Vivo Anticancer Drug Screen. Data for tumor model L1210 Leukemia (intraperitoneal) in B6D2F1 (BDF1) mice. To be noted: endpoint: mean survival time, higher = longer survival. A digest of the protocol: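 Transplanted-tumor mice were given test agent; controls received vehicle only. Survival readings from the two groups were divided (treated over control).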

Where [1] appears, read: dose: 100.0 mg/kg/injection, schedule: Q01DX009 (ip), vehicle: saline with Tween-80.
[2] abbreviates: dose: 100.0 mg/kg/injection, schedule: Q01DX001 (ip), vehicle: saline.
[3] abbreviates: dose: 200.0 mg/kg/injection, schedule: Q01DX001 (ip), vehicle: saline.
[4] abbreviates: dose: 400.0 mg/kg/injection, schedule: Q01DX001 (ip), vehicle: saline.
Where [5] appears, read: dose: 100.0 mg/kg/injection, schedule: Q04DX003 (ip), vehicle: saline with Tween-80.
Setting [6] is: dose: 200.0 mg/kg/injection, schedule: Q04DX003 (ip), vehicle: saline with Tween-80.
Where [7] appears, read: dose: 75.0 mg/kg/injection, schedule: Q01DX001 (ip), vehicle: carboxymethylcellulose (CMC).

`O=C(NCCCc1ccc(S(=O)(=O)F)cc1)Oc1ccc([N+](=O)[O-])cc1`: the T/C was 102 % of control (dose: 25.0 mg/kg/injection, schedule: Q01DX009 (ip), vehicle: saline with Tween-80); 100 % of control (dose: 50.0 mg/kg/injection, schedule: Q01DX009 (ip), vehicle: saline with Tween-80); 93 % of control and 86 % of control under setting [1].

`O=C(O)C(=O)O.[Co+3].[NH-]C(Cc1ccccc1)C(=O)[O-].[NH-]CCN(CC[NH-])CC[NH-]` (centres undefined): the T/C by setting is: (dose: 50.0 mg/kg/injection, schedule: Q01DX001 (ip), vehicle: saline) 110 % of control; under setting [2], 105 % of control; under setting [3], 104 % of control; under setting [4], 102 % of control.

Take `Cc1ccc(C(=O)CCl)o1`: the T/C reads like this: under setting [5], 106 % of control; under setting [6], 116 % of control.

Take `O=C(O)c1ccc2c(c1)C(=O)c1ccccc1-2`: the T/C was 107 % of control (dose: 100.0 mg/kg/injection, schedule: Q01DX001 (ip), vehicle: carboxymethylcellulose (CMC)); 100 % of control (dose: 200.0 mg/kg/injection, schedule: Q01DX001 (ip), vehicle: carboxymethylcellulose (CMC)); 107 % of control (dose: 400.0 mg/kg/injection, schedule: Q01DX001 (ip), vehicle: carboxymethylcellulose (CMC)).

Consider `O=NN(CCCl)C(=O)Nc1cccc(O)c1`, for which the T/C (dose: 4.5 mg/kg/injection, schedule: Q01DX009 (ip), vehicle: other) is 123 % of control; the T/C (dose: 7.0 mg/kg/injection, schedule: Q01DX009 (ip), vehicle: other) is 176 % of control; the T/C (dose: 11.0 mg/kg/injection, schedule: Q01DX009 (ip), vehicle: other) was 155 % of control; the T/C (dose: 17.0 mg/kg/injection, schedule: Q01DX009 (ip), vehicle: carboxymethylcellulose (CMC)) is 170 % of control; the T/C (dose: 17.0 mg/kg/injection, schedule: Q01DX009 (ip), vehicle: other) was 154 % of control; the T/C (dose: 26.0 mg/kg/injection, schedule: Q01DX009 (ip), vehicle: carboxymethylcellulose (CMC)) is 210 % of control. Also, the T/C is 184 % of control (dose: 26.0 mg/kg/injection, schedule: Q01DX009 (ip), vehicle: other); 154 % of control (dose: 30.0 mg/kg/injection, schedule: Q01DX001 (ip), vehicle: carboxymethylcellulose (CMC)); 156 % of control (dose: 40.0 mg/kg/injection, schedule: Q01DX009 (ip), vehicle: carboxymethylcellulose (CMC)); 170 % of control (dose: 40.0 mg/kg/injection, schedule: Q01DX009 (ip), vehicle: other); 154 % of control and 168 % of control (dose: 60.0 mg/kg/injection, schedule: Q01DX001 (ip), vehicle: carboxymethylcellulose (CMC)); 121 % of control (dose: 60.0 mg/kg/injection, schedule: Q01DX009 (ip), vehicle: other). Further, under setting [7], the T/C is 118 % of control.

For the compound `O=C(CCCCl)N1CCCC1`, the T/C (dose: 100.0 mg/kg/injection, schedule: Q04DX002 (ip), vehicle: saline) was 98 % of control; the T/C (dose: 200.0 mg/kg/injection, schedule: Q04DX002 (ip), vehicle: saline) is 91 % of control; the T/C (dose: 400.0 mg/kg/injection, schedule: Q04DX002 (ip), vehicle: saline) is 94 % of control.

Take `c1ccc(-c2c[nH]c(-c3ccccc3)c2-c2ccccc2)cc1`: the T/C was 93 % of control under setting [7]; 93 % of control (dose: 150.0 mg/kg/injection, schedule: Q01DX001 (ip), vehicle: carboxymethylcellulose (CMC)); 93 % of control (dose: 300.0 mg/kg/injection, schedule: Q01DX001 (ip), vehicle: carboxymethylcellulose (CMC)).

For the compound `CN(Cc1cnc2nc(N)nc(N)c2n1)c1ccc(C(=O)NC(CCC(=O)O)C(=O)O)cc1C(F)(F)F` (centres undefined), the T/C reads like this: (dose: 5.0 mg/kg/injection, schedule: Q01DX009 (ip), vehicle: sodium bicarbonate) 158 % of control; (dose: 10.0 mg/kg/injection, schedule: Q01DX009 (ip), vehicle: sodium bicarbonate) 168 % of control.

In the case of `COC(=O)/C=C(\C)CCC1OC1(C)C` (centres undefined), the T/C by setting is: under setting [2], 105 % of control; (dose: 100.0 mg/kg/injection, schedule: Q04DX003 (ip), vehicle: acetone) 95 % of control; under setting [3], 100 % of control; (dose: 200.0 mg/kg/injection, schedule: Q04DX003 (ip), vehicle: acetone) 108 % of control; under setting [4], 94 % of control; (dose: 400.0 mg/kg/injection, schedule: Q04DX003 (ip), vehicle: acetone) 103 % of control.

With `N#CC(NC(=O)NCCO)c1ccccc1` (centres undefined), the T/C is 107 % of control under setting [5]; 96 % of control under setting [6]; 101 % of control (dose: 400.0 mg/kg/injection, schedule: Q04DX003 (ip), vehicle: saline with Tween-80).

Take `CCCCCCCCN(N)C12CC3CC(CC(C3)C1)C2`: the T/C was 106 % of control (dose: 6.25 mg/kg/injection, schedule: Q01DX009 (ip), vehicle: saline); 107 % of control (dose: 12.5 mg/kg/injection, schedule: Q01DX009 (ip), vehicle: saline); 113 % of control (dose: 12.5 mg/kg/injection, schedule: Q04DX003 (ip), vehicle: saline); 106 % of control (dose: 25.0 mg/kg/injection, schedule: Q01DX009 (ip), vehicle: saline); 113 % of control (dose: 25.0 mg/kg/injection, schedule: Q04DX003 (ip), vehicle: saline); 87 % of control (dose: 50.0 mg/kg/injection, schedule: Q01DX009 (ip), vehicle: saline). Moreover, the T/C (dose: 50.0 mg/kg/injection, schedule: Q04DX003 (ip), vehicle: saline) is 113 % of control.

As for `c1ccc(C(Nc2ccccn2)(c2ccccc2)c2ccccc2)cc1`, the T/C was 104 % of control (dose: 100.0 mg/kg/injection, schedule: Q04DX002 (ip), vehicle: saline with Tween-80); 101 % of control (dose: 200.0 mg/kg/injection, schedule: Q04DX002 (ip), vehicle: saline with Tween-80); 93 % of control (dose: 400.0 mg/kg/injection, schedule: Q04DX002 (ip), vehicle: saline with Tween-80).

Consider `O=C(NCc1ccccc1)C(F)(F)F`, for which the T/C (dose: 100.0 mg/kg/injection, schedule: Q01DX001 (ip), vehicle: saline with Tween-80) is 102 % of control; the T/C (dose: 200.0 mg/kg/injection, schedule: Q01DX001 (ip), vehicle: saline with Tween-80) is 102 % of control; the T/C (dose: 400.0 mg/kg/injection, schedule: Q01DX001 (ip), vehicle: saline with Tween-80) is 100 % of control.

On to `O=c1[nH]cc(Nc2ccccc2)c(=O)[nH]1`, for which the T/C is, setting by setting: (dose: 100.0 mg/kg/injection, schedule: Q04DX003 (ip), vehicle: Klucel (hydroxypropylcellulose) (HPC)) 95 % of control; (dose: 200.0 mg/kg/injection, schedule: Q04DX003 (ip), vehicle: Klucel (hydroxypropylcellulose) (HPC)) 92 % of control; (dose: 400.0 mg/kg/injection, schedule: Q04DX003 (ip), vehicle: Klucel (hydroxypropylcellulose) (HPC)) 88 % of control.

As for `CCSc1ncnc2nc(C)[nH]c12`, the T/C was 100 % of control under setting [2] and 101 % of control under setting [3].

As to `C=C(C)C1CCC2(C=O)CCC3(C)C(CCC4C5(C)CCC(O)C(C)(C)C5CCC43C)C12` (centres undefined), the T/C is 100 % of control (dose: 18.75 mg/kg/injection, schedule: Q01DX009 (ip), vehicle: Klucel (hydroxypropylcellulose) (HPC)); 93 % of control (dose: 37.5 mg/kg/injection, schedule: Q01DX009 (ip), vehicle: Klucel (hydroxypropylcellulose) (HPC)); 89 % of control (dose: 75.0 mg/kg/injection, schedule: Q01DX009 (ip), vehicle: Klucel (hydroxypropylcellulose) (HPC)).

Regarding `O=C(O)COC(C[N+](=O)[O-])C(Cl)(Cl)Cl` (centres undefined), the T/C under setting [1] was 95 % of control; the T/C (dose: 200.0 mg/kg/injection, schedule: Q01DX009 (ip), vehicle: saline with Tween-80) is 92 % of control; the T/C (dose: 400.0 mg/kg/injection, schedule: Q01DX009 (ip), vehicle: saline with Tween-80) was 88 % of control.

In the case of `CCCCCCCCCCCC(=O)OCC1OC2C(Oc3nc(=N)ccn32)C1OC(=O)CCCCCCCCCCC` (centres undefined), the T/C (dose: 12.5 mg/kg/injection, schedule: Q01DX009 (ip), vehicle: water) is 157 % of control; the T/C (dose: 25.0 mg/kg/injection, schedule: Q01DX009 (ip), vehicle: water) was 210 % of control; the T/C (dose: 50.0 mg/kg/injection, schedule: Q01DX009 (ip), vehicle: water) was 165 % of control.

The record behind these values is PubChem BioAssay AID248 (DTP/NCI, 2004).
